This experiment concerns the target GPR84 (Mus musculus, UniProt Q8CIM5). Kind of experiment: cAMP inhibition assay in Dox-inducible mouse GPR84 HEK293 cells, with Dox-uninduced controls. The experiment is classed as cell-based.

Read-outs that look alike come from different tables or passages of the source.

GPR84, sequence (Q8CIM5 whole entry): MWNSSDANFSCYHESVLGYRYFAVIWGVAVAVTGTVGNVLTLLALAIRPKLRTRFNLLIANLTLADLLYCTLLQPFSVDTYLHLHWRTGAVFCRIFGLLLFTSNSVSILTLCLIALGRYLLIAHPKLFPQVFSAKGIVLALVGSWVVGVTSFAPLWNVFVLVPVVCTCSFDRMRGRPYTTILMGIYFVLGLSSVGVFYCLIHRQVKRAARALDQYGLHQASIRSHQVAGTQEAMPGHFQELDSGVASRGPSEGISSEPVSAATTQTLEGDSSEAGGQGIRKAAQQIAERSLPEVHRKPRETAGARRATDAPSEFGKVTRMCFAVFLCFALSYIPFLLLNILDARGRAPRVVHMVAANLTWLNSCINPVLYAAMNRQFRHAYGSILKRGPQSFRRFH

Broadly, the EC50 is the concentration needed to bring the measured effect to its halfway point. With `CCCCCCCCCCCC(=O)O` [C12:0], the EC50 (read-out: EC50) came to 4.4 µM.

`CCCCCCCCCC(=O)O` [C10:0, capric acid] had an EC50 of 3.5 µM.
